Reference: patent publication USRE29226E, “Preparation of carboxylate and sulfonate salts of 1-cis-(3-chloro-2-propenyl)-3,5,7-triaza-1-azoniatricyclo(3.3.1.1^3, 7)decane-II” (The Dow Chemical Company, priority 1976, dated 1977)
Structures can show the parent of a compound that is named as a salt. Where two headings read alike, the source gives them in different places.

Legend:
Format in all cases: cell-based
A. niger = assay: conventional agar dilution test, A. niger; details: An = A. niger, complete growth inhibition; for MIC: Aspergillus niger, read-out: Minimum Inhibitory Concentration
Description: (§1) In representative operations, the products of the invention when tested for antimicrobial activity using conventional agar dilution tests gave complete growth inhibition against the following organisms at the indicated concentrations in parts per million:
(§2) Minimum Inhibitory Concentration, ppm

S. typhosa = assay: conventional agar dilution test, S. typhosa; details: St = S. typhosa, complete growth inhibition
Description: as §1, §2

S. aureus = assay: conventional agar dilution test, S. aureus; details: Sa = S. aureus, complete growth inhibition
Description: as §1, §2

S. cerevisiae = assay: conventional agar dilution test, S. cerevisiae; details: Sc = S. cerevisiae; for Minimum Inhibitory Concentration / MIC: complete growth inhibition, agar dilution; for MIC: read-out: Minimum Inhibitory Concentration
Description: as §1, §2

A. aerogenes = assay: conventional agar dilution test, A. aerogenes; details: Aa = A. aerogenes, complete growth inhibition
Description: as §1, §2

P. aeruginosa = assay: conventional agar dilution test, P. aeruginosa; details: Pa = P. aeruginosa, complete growth inhibition; for MIC: Pseudomonas aeruginosa, read-out: Minimum Inhibitory Concentration
Description: as §1, §2

P. chrysogenum = assay: conventional agar dilution test, P. chrysogenum; details: Pen = P. chrysogenum
Description: as §1, §2

C. pelliculosa = assay: conventional agar dilution test, C. pelliculosa; details: Cp = C. pelliculosa
Description: as §1, §2

[1] = complete growth inhibition, agar dilution

| SMILES | Minimum Inhibitory Concentration (A. niger) [ppm] | Minimum Inhibitory Concentration (S. typhosa) [ppm] | Minimum Inhibitory Concentration (S. aureus) [ppm] | Minimum Inhibitory Concentration (S. cerevisiae) [ppm] | Minimum Inhibitory Concentration (A. aerogenes) [ppm] | Minimum Inhibitory Concentration (P. aeruginosa) [ppm] | Minimum Inhibitory Concentration (P. chrysogenum; [1]) [ppm] | Minimum Inhibitory Concentration (C. pelliculosa; [1]) [ppm] | inhibition at 500 ppm (P. chrysogenum; Penicillium chrysogenum, 500 ppm) [%] | inhibition at 500 ppm (S. cerevisiae) | inhibition at 500 ppm (C. pelliculosa) | MIC (A. niger) [µg/mL] | MIC (S. typhosa; read-out: Minimum Inhibitory Concentration) [µg/mL] | MIC (S. aureus; Staphylococcus aureus, read-out: Minimum Inhibitory Concentration) [µg/mL] | MIC (S. cerevisiae; Saccharomyces cerevisiae) [µg/mL] | MIC (A. aerogenes; Klebsiella aerogenes, read-out: Minimum Inhibitory Concentration) [µg/mL] | MIC (P. aeruginosa) [µg/mL] | MIC (P. chrysogenum; Penicillium chrysogenum, complete growth inhibition, agar dilution, read-out: Minimum Inhibitory Concentration) [µg/mL] | MIC (C. pelliculosa; Hansenula anomala, complete growth inhibition, agar dilution, read-out: Minimum Inhibitory Concentration) [µg/mL] | inhibition at 500 ppm (S. cerevisiae; Saccharomyces cerevisiae, read-out: inhibition at 500 ppm) [%] |
| --- | --- | --- | --- | --- | --- | --- | --- | --- | --- | --- | --- | --- | --- | --- | --- | --- | --- | --- | --- | --- |
| Cl/C=C\C[N+]12CN3CN(CN(C3)C1)C2 [Ie] | > 500 | 25 | 75 | > 500 | 250 | 250 | > 500 | > 500 | – | – | – | – | – | – | – | – | – | – | – | – |
| Cl/C=C\C[N+]12CN3CN(CN(C3)C1)C2 [Ig] | > 500 | 50 | 50 | > 500 | 250 | 250 | – | > 500 | > 90 | – | – | – | – | – | – | – | – | – | – | – |
| Cl/C=C\C[N+]12CN3CN(CN(C3)C1)C2 [Ib] | > 500 | 50 | 75 | – | 75 | 250 | 500 | – | – | ± (50% inhibition at 500 ppm) | .-+. (>90% inhibition at 500 ppm) | – | – | – | – | – | – | – | – | – |
| Cl/C=C\C[N+]12CN3CN(CN(C3)C1)C2 [If] | 250 | 75 | 250 | 500 | 250 | 250 | 100 | 250 | – | – | – | – | – | – | – | – | – | – | – | – |
| Cl/C=C\C[N+]12CN3CN(CN(C3)C1)C2.[Cl-] [Cis, cis-1-(3-chloro-2-propenyl)-3,5,7-triaza-1-azoniatricyclo(3.3.1.1^3,7)decane chloride, reference compound] | – | – | – | – | – | – | – | – | – | – | ± (50% inhibition at 500 ppm) | > 500 | 25 | 50 | 250 | 50 | 100 | 250 | – | – |
| Cl/C=C\C[N+]12CN3CN(CN(C3)C1)C2 [Ih] | > 500 | 75 | 250 | > 500 | 250 | 250 | > 500 | > 500 | – | – | – | – | – | – | – | – | – | – | – | – |
| Cl/C=C\C[N+]12CN3CN(CN(C3)C1)C2 [Example 1, Mono-benzoate Salt of Cis] | – | 50 | 100 | – | 100 | – | 500 | – | – | – | – | > 500 | – | – | > 500 | – | 250 | – | > 500 | – |
| Cl/C=C\C[N+]12CN3CN(CN(C3)C1)C2 [Ii] | 500 | 50 | 250 | 500 | 250 | 250 | 100 | 250 | – | – | – | – | – | – | – | – | – | – | – | – |
| Cl/C=C\C[N+]12CN3CN(CN(C3)C1)C2 [Ia] | > 500 | 50 | 100 | – | 100 | 250 | > 500 | – | – | ± (50% inhibition at 500 ppm) | ± (50% inhibition at 500 ppm) | – | – | – | – | – | – | – | – | – |
| Cl/C=C\C[N+]12CN3CN(CN(C3)C1)C2 [Id] | > 500 | 50 | 250 | 500 | 250 | 250 | 500 | – | – | – | .-+. (>90% inhibition at 500 ppm) | – | – | – | – | – | – | – | – | – |
| Cl/C=C\C[N+]12CN3CN(CN(C3)C1)C2 [Ij] | 500 | 75 | 250 | 500 | 75 | 250 | 250 | 500 | – | – | – | – | – | – | – | – | – | – | – | – |
| Cl/C=C\C[N+]12CN3CN(CN(C3)C1)C2 [Example 2, p-Toluene Sulfonate Mono-Salt of Cis] | > 500 | 50 | 250 | – | 100 | 250 | 500 | – | – | – | ± (50% inhibition at 500 ppm) | – | – | – | – | – | – | – | – | 50 |
| Cl/C=C\C[N+]12CN3CN(CN(C3)C1)C2 [Ic] | > 500 | 100 | 100 | 500 | 100 | 250 | 500 | – | – | – | ± (50% inhibition at 500 ppm) | – | – | – | – | – | – | – | – | – |
